Assays:
[1] = system: HSV-1; test: Plaque assay of supernatants from HSV-1 infected hTCEpi cells; type: cell-based, HSV-1 (KOS strain)
Description: (§1) All cells were cultured at 37° C. and 5% CO2 and supplemented with 100 U/mL penicillin and […]. Human corneal epithelial cells immortalized with hTERT (hTCEpi; Robertson, et al., 2005, Invest Ophthalmol Vis Sci. 46:470-478) were grown in complete keratinocyte growth medium 2 (KGM-2; Lonza, Basel, Switzerland). African green monkey kidney fibroblasts (CV-1; American Type Culture Collection, Manassas, Va.) were grown in Dulbecco's modified Eagle's medium (DMEM; Cellgro, Manassas, Va.) supplemented with 10% FBS. The KOS strain of HSV-1 was used in the in vitro and ex vivo infections, whereas McKrae strain was used for in vivo mouse experiments, and TK mutant dlsptk strain (Coen et al., 1989, Proc Natl Acad Sci USA 86:4736-4740) was used in the drug resistance experiments. All viral stocks were titered on CV-1 monolayers.
(§2) The following strains of HSV-1 were used: KOS, ICPO-null, HFEM, and tsB7. Subconfluent monolayers of cells were grown in six-well plates. Drug treatments were administered 45 minutes prior to infection and continued for the entire duration of each experiment. Unless indicated otherwise, KU-55933 (Batch No. 5, 99.7% purity; Tocris Bioscience, Bristol, UK) was used at 10 μM final concentration, phosphonoacetic acid (PAA) at 400 μg/mL (Sigma-Aldrich, St. Louis, Mo.), and acyclovir at 50 μg/mL (Sigma-Aldrich). […]

[2] = system: HSV-1; test: qPCR of viral genome replication in HSV-1 infected hTCEpi cells; type: cell-based, HSV-1 (KOS strain); details: for viral genome replication (qPCR): MOI 0.1, inhibitor 10 μM
Description: The following strains of HSV-1 were used: KOS, ICPO-null, HFEM, and tsB7. Subconfluent monolayers of cells were grown in six-well plates. Drug treatments were administered 45 minutes prior to infection and continued for the entire duration of each experiment. Unless indicated otherwise, KU-55933 (Batch No. 5, 99.7% purity; Tocris Bioscience, Bristol, UK) was used at 10 μM final concentration, phosphonoacetic acid (PAA) at 400 μg/mL (Sigma-Aldrich, St. Louis, Mo.), and acyclovir at 50 μg/mL (Sigma-Aldrich). KU-55933 was dissolved in dimethyl sulfoxide (DMSO), and the final concentration of DMSO in both KU-55933 and mock treatment in the in vitro and the ex vivo experiments was 0.1%.
Infections with KOS strain of HSV-1 were carried out in six-well plates in a 200 μL inoculum volume at 37° C. for 1 hour with intermittent rocking. The cells were then rinsed and overlaid with fresh medium.
Viral genome replication and transcription were measured by quantitative PCR (qPCR). Total DNA and RNA from infected cells were isolated using the DNeasy Blood & Tissue Kit and the RNeasy Mini Kit, respectively (QIAGEN, Hilden, Germany). RNA was converted to cDNA using qScript (Quanta BioSciences, Gaithersburg, Md.). Real-time qPCR was performed with SYBR Green (Bio-Rad, Hercules, Calif.). Target primers for UL30 (DNA polymerase catalytic subunit) and reference primers for glyceraldehyde 3-phosphate dehydrogenase (GAPDH) were used to measure genome replication. Transcription of the three gene families was measured with primers for RL2 (ICPO), UL30 (DNA polymerase catalytic subunit), and UL44 (gC), with reference primers for the 18S ribosomal RNA (rRNA).
Cells were grown in 6-well plates and used in experiments at −80% confluence. Drug treatments were administered 45 min prior to infection and continued for the entire duration of each experiment. Unless indicated otherwise, Chk2 inhibitor II (>98% purity by HPLC) was used at 10 μM final concentration, and phosphonoacetic acid (PAA) at 400 μg/ml (both from Sigma-Aldrich, St. Louis, Mo.). Chk2 inhibitor II was dissolved in DMSO such that the final concentration of DMSO in both Chk2 inhibitor II and mock treatment was 0.1%. Infections with KOS strain of HSV-1 were carried out in 6-well plates in a 200 μl inoculum volume at 37° C. for 1 hour with intermittent rocking. The cells were then thoroughly rinsed and overlaid with fresh medium.
Total DNA from infected cells and corneas was isolated using the DNeasy Blood & Tissue Kit (QIAGEN, Hilden, Germany). Real time quantitative PCR was performed with SYBR Green (Bio-Rad, Hercules, Calif.). Target primers for UL30 (DNA polymerase catalytic subunit) and reference primers for GAPDH were used to measure viral genome abundance. Primer sequences were based on the KOS genome (accession #JQ673480.1).

[3] = system: cleaved caspase-3; test: Cleaved caspase-3 immunofluorescence in HSV-1 infected explanted human corneas; type: cell-based; details: 10 μM, 48 hpi, vs mock-treated
Description: Human corneas were obtained from the Lions Eye Bank of Delaware Valley. Rabbit corneas were excised from intact fresh eyeballs of young (8-12 weeks) albino rabbits (Pel-Freez Biologicals, Rogers, Ark.). Protocol (Alekseev et al., 2012, J Vis Exp 69:e3631) for ex vivo corneal culture, infection, and treatment was followed closely. Briefly, corneoscleral buttons were excised and rinsed in PBS containing 200 U/mL penicillin and 200 μg/mL streptomycin. The endothelial concavity was filled with culture medium containing 1% low melting temperature agarose. The corneas were cultured epithelial side up in MEM medium supplemented with nonessential amino acids (1×), 2 mM […], 200 U/mL penicillin, and 200 μg/mL streptomycin. The next day, they were infected with 1×10^4 plaque forming units (PFU)/cornea of strain KOS HSV-1 for 1 hour, rinsed, and overlaid with fresh medium. Drug treatments were administered at the same concentrations as for cultured cells. For KU-55933 bioavailability assessment, corneas were treated with bleomycin (200 μg/mL) for 1 hour. The epithelial cell layer was collected by scraping to isolate DNA or protein. […] Treatment toxicity was assessed by briefly staining the cornea with fluorescein (1% wt/vol in PBS) and imaging the epithelial defects with 464-nm wavelength blue light (LDP LLC, Carlstadt, N.J.). […]

[4] = system: HSV-1; test: HSV-1 cytopathic effect in infected hTCEpi cells (phase contrast); type: cell-based, HSV-1 (KOS strain); details: MOI 0.1, inhibitor 10 μM, 20 hpi
Description: as §1, §2

Row | Structure (SMILES) | generation of infectious viral particles (plaque assay) ([1]; MOI 0.1, 10 μM, vs controls) | viral genome replication (qPCR) ([2]; hTCEpi cells) | viral genome levels (qPCR) at high viral load ([2]; hTCEpi cells, MOI 5, 10 μM) | cleaved caspase-3 staining (apoptosis) in corneal epithelium [3] | cytopathic effect (CPE) of HSV-1 [4] | inhibition of infectious particle production (plaque assay) ([1]; MOI 0.1, KU-55933 10 μM, 20 hpi) | effect of addition on the dose-response curve of the partner drug ([2]; hTCEpi, MOI 0.1, KU-55933 0-7 μM with acyclovir 0-1.5 μg/mL, 16 hpi)
1 | NC(=O)c1ccc2[nH]c(-c3ccc(Oc4ccc(Cl)cc4)cc3)nc2c1 [Chk2 inhibitor II, 2-(4-(4-chlorophenoxy)phenyl)-1H-benzimidazole-5-carboxamide] | reduction | profoundly reduced | reduced yet still substantial decrease | abrogated | almost completely eliminated |  | 
2 | O=c1cc(-c2cccc3c2Sc2ccccc2S3)oc(N2CCOCC2)c1 [KU-55933, 2-(morpholin-4-yl)-6-(thianthren-1-yl)-pyran-4-one] |  | sharp reduction |  | reduction | prevented | greater than 10,000 fold | shifted the acyclovir dose-response curve to the left

Source: patent publication US20210023089A1, “Compositions Useful for Treating Herpes Simplex Keratitis, and Methods Using Same” (priority 2013, published 2021)
